“And” between values parts separate entries of the source, which are not always exact repeats. Equal entries are not always repeated.

Results on six compounds are retold here after publication PMC6854577, “Quantitation of Thyroid Hormone Binding to Anti-Thyroxine Antibody Fab Fragment by Native Mass Spectrometry” (ACS Omega, 2019).

For assay [1], the target named is anti-T4 antibody Fab fragment. Kind of assay: Native MS (ESI FT-ICR) ligand competition with T2 as low-affinity reference ligand. In kind it is binding, mouse. The following applies: for binding affinity (in words): native MS. On the procedure: All mass spectrometric experiments were performed by using a 12-T Bruker solariX XR Fourier transform ion cyclotron resonance (FT-ICR) instrument (Bruker Daltonics, Bremen, Germany) equipped with an electrospray ionization (ESI) source (Apollo-II). Mass spectra were obtained in a positive ion mode, and the samples were directly infused to the ion source at a flow rate of 2 μL min^–1. Dry nitrogen was used as nebulizing (4.0 L min^–1) and drying (80 °C, 1.0 bar) gas. The ions were accumulated in the hexapole ion trap for 3.5 s and then transferred to the dynamically harmonized ICR cell (Paracell) for trapping, excitation, and detection. The time of flight was set to 3.5 ms. All other instrumental parameters were carefully adjusted to preserve noncovalent interactions in the gas phase. […] The mass spectra were externally calibrated by the ESI Tuning mix (part no. G2431A; Agilent Technologies, Santa Clara, CA). The mass spectra were acquired from m/z 1500 to 5000. The data acquisition was attained by ftmsControl 2.1 software and further processed and analyzed by DataAnalysis 4.2 SR1 software. […]
To determine the binding affinities for the other ligands, ligand competition experiments were performed.[25],[26] Briefly, T2 was used as the “low-affinity” reference ligand, whose accurate Kd value was determined earlier by the direct ligand titration. The two ligands, competing for the same binding site in anti-T4 Fab, were mixed at the appropriate concentrations (determined earlier by initial screening experiments) with the protein at a fixed concentration of 0.1 μM. Ten replicates were measured for each ligand pair from three different samples.
A mathematical model to calculate Kd values from the competition experiments was as follows: For L and Lref, competing for a single binding site in P, the two equilibrium reactions are [drawing 2] [drawing 3] where P is the receptor protein, L is the ligand, and Lref is the “low-affinity” reference ligand. Briefly, the intensity ratio (R) of the total abundance of the ligand-bound protein (PL) and free protein (P) was calculated for each spectrum. The affinity measurement for the “low-affinity” ligand (Lref) was performed by a direct titration method. The individual Kd values for L and Lref are derived as [drawing 4] 2 [drawing 5] 3 where the brackets represent equilibrium concentrations of L, Lref, P, PL, and PLref. The mass balance equations at equilibrium are [drawing 6] 4 [drawing 7] 5 [drawing 8] 6 where [P]total, [L]total, and [Lref]total are the total protein, ligand, and reference ligand concentrations, respectively.
At equilibrium, [P] is the same for both ligands, and thus, eqs. […] were simplified to [drawing 9] 7
The ESI-MS spectrum directly provides normalized intensities (“concentration coefficients”) i(P), i(PL), and i(PLref), such that their sum equals 1, which can then be used to calculate equilibrium concentrations by eqs 8, 9, and 10: [drawing 10] 8 [drawing 11] 9 [drawing 12] 10 These calculations are valid if one assumes that the ionization and ion transmission efficiencies for P, PL, and PLref are the same (they are if mL ≈ mLref ≪ mP, which is true in this case), and there is no complex dissociation upon ionization/desolvation stages (i.e., careful adjustments of instrumental parameters). The intensities should be calculated as integrated sums of different charge states to avoid any bias resulting from different CSDs between the free and bound proteins. The free ligand concentrations, [L] and [Lref], can be obtained from eqs 5 and 6. The equilibrium concentrations [L], [Lref], [PL], and [PLref] as well as the predetermined/known Kd(Lref) can be inserted into eq 7 to calculate Kd(L).

Assay [2] has as its target anti-T4 antibody Fab fragment. Kind of assay: Native MS initial ligand screening (approximate affinities, stoichiometry). The format is binding, mouse. The following applies: 0.1 μM Fab; for approximate binding affinity: initial ligand screening. On the procedure: All mass spectrometric experiments were performed by using a 12-T Bruker solariX XR Fourier transform ion cyclotron resonance (FT-ICR) instrument (Bruker Daltonics, Bremen, Germany) equipped with an electrospray ionization (ESI) source (Apollo-II). Mass spectra were obtained in a positive ion mode, and the samples were directly infused to the ion source at a flow rate of 2 μL min^–1. Dry nitrogen was used as nebulizing (4.0 L min^–1) and drying (80 °C, 1.0 bar) gas. The ions were accumulated in the hexapole ion trap for 3.5 s and then transferred to the dynamically harmonized ICR cell (Paracell) for trapping, excitation, and detection. The time of flight was set to 3.5 ms. All other instrumental parameters were carefully adjusted to preserve noncovalent interactions in the gas phase. […] The mass spectra were externally calibrated by the ESI Tuning mix (part no. G2431A; Agilent Technologies, Santa Clara, CA). The mass spectra were acquired from m/z 1500 to 5000. The data acquisition was attained by ftmsControl 2.1 software and further processed and analyzed by DataAnalysis 4.2 SR1 software. All native MS experiments were performed in 20 mM aqueous ammonium acetate (pH 6.9) solution.
First, the approximate binding affinities of thyroid hormones and tetrahalogen bisphenols to anti-T4 Fab were determined via initial screening experiments (Figures S1–S7).

Assay [3] deals with THRα1. More on the design: method as in PMID 15466465. The following applies: cited from earlier work.
Assay [4] concerns anti-T4 Fab. Also on record: method as in PMID 9095353, PMID 9460543. As to conditions: SPR, cited from earlier work.
Assay [5] has as its target anti-T4 antibody Fab fragment. Description: Native MS (ESI FT-ICR) direct ligand titration. In kind it is binding, mouse. The following applies: 0.005-2.0 μM T2, 0.1 μM Fab. On the procedure: All mass spectrometric experiments were performed by using a 12-T Bruker solariX XR Fourier transform ion cyclotron resonance (FT-ICR) instrument (Bruker Daltonics, Bremen, Germany) equipped with an electrospray ionization (ESI) source (Apollo-II). Mass spectra were obtained in a positive ion mode, and the samples were directly infused to the ion source at a flow rate of 2 μL min^–1. Dry nitrogen was used as nebulizing (4.0 L min^–1) and drying (80 °C, 1.0 bar) gas. The ions were accumulated in the hexapole ion trap for 3.5 s and then transferred to the dynamically harmonized ICR cell (Paracell) for trapping, excitation, and detection. The time of flight was set to 3.5 ms. […] The data acquisition was attained by ftmsControl 2.1 software and further processed and analyzed by DataAnalysis 4.2 SR1 software. […]
A direct ligand titration[9],[22],[23] was used to determine the binding constant for the “low-affinity” reference ligand. […] The fractional saturation (Y) of the protein was calculated from the intensity ratio of the protein–ligand complex (PL) and free protein (P) for every single ligand (L) concentration (intensities averaged over different charge states), and the data were fitted into the specific, single-site binding model[24] […] Five replicate samples were prepared and measured for each T2 concentration. […]

The mark [6] stands for this setting: 0.1 μM Fab, 20 mM ammonium acetate pH 6.8, ligand and reference ligand (T2) concentrations per Table 1, mean ± SD, 10 replicates of three samples, read-out: Kd.
[7] abbreviates: T4/T2 0.14/0.5 μM, T3/T2 0.14/0.5 μM, T0/T2 15/0.05 μM, 0.1 μM Fab, read-out: Kd (self-validation at second ligand concentrations).

For the compound `CC(C)(c1cc(I)c(O)c(I)c1)c1cc(I)c(O)c(I)c1` [TIB, tetraiodobisphenol-A], in assay [1] (setting [6]), the Kd came to 11 nM. Moreover, the “binding affinity (in words)” value in assay [1] (anti-T4 Fab) was “nanomolar binding affinities”. Further, the approximate binding affinity entry in assay [2] was “submicromolar to micromolar affinity range”.

`N[C@@H](Cc1ccc(Oc2ccc(O)cc2)cc1)C(=O)O` [T0, L-thyronine]: the Kd in assay [1] (setting [6]) was found to be 130000 nM; in assay [1] (setting [7]), 174000 nM; in assay [1] (competition with T2 as reference ligand, as given in the abstract, read-out: Kd), 130000 nM. In addition, in assay [1] (anti-T4 Fab, native MS Kd values compared), the “binding affinity relative to T3” value is on record as “approximately five orders of magnitude lower”. Also, in assay [2], the approximate binding affinity result is “submicromolar to micromolar affinity range”.

For `CC(C)(c1cc(Cl)c(O)c(Cl)c1)c1cc(Cl)c(O)c(Cl)c1` [TCB, tetrachlorobisphenol-A], the Kd in assay [1] (setting [6]) was 7800 nM. Further, in assay [2] (ligand added until saturation), the ligand saturation entry is “saturative binding was not observed even at a molar ligand excess of 200”. Moreover, the approximate binding affinity entry in assay [2] is “submicromolar to micromolar affinity range”.

As for `N[C@@H](Cc1cc(I)c(Oc2cc(I)c(O)c(I)c2)c(I)c1)C(=O)O` [T4, L-thyroxine], the Kd in assay [1] (setting [6]) is 29 nM; in assay [1] (setting [7]), 23.9 nM; in assay [3] it was 2 nM. Besides, the approximate binding affinity result in assay [2] is reported as “low nanomolar binding affinities”. Further, the “affinity relative to T3” value in assay [4] is listed as “approximately 10 times”.

For `N[C@@H](Cc1ccc(Oc2ccc(O)c(I)c2)c(I)c1)C(=O)O` [T2, 3,3′-diiodo-L-thyronine], the Kd is 260 nM in assay [5] (20 mM ammonium acetate pH 6.8); 263 nM and 260 nM in assay [5] (20 mM ammonium acetate pH 6.8, one-site binding fit, five replicates). The approximate binding affinity result in assay [2] is given as “submicrometer range”. For the same compound, in assay [4] (within the Kd range accessible by the technique), the binding entry is “did not show any binding”.

For `CC(C)(c1cc(Br)c(O)c(Br)c1)c1cc(Br)c(O)c(Br)c1` [TBB, tetrabromobisphenol-A], in assay [1] (setting [6]), the Kd was found to be 87 nM. The “binding affinity (in words)” value in assay [1] (anti-T4 Fab) is “nanomolar binding affinities”. Moreover, the approximate binding affinity result in assay [2] is reported as “submicromolar to micromolar affinity range”.
